Test results taken from publication PMC10578308, “Design of Synthetic Surrogates for the Macrolactone Linker Motif in Coibamide A” (ACS Medicinal Chemistry Letters, 2023).
Positions of bridges follow the written chain, without caps; N, C: chain ends. Non-standard residues stand in square brackets, D forms with d. Residues, ends and D or L forms follow the SMILES beside them. *: point of attachment. NMe2Val = CC(C)[C@@H](C(=O)*)N(C)C; NMeI = CC[C@H](C)[C@H](NC)C(=O)O; NMeT = CN[C@H](C(=O)O)[C@@H](C)O; NMeL = CN[C@@H](CC(C)C)C(=O)O; NMeDap = CN[C@@H](CN)C(=O)O; dHiv = CC(C)[C@@H](O)C(=O)O; NMeS = CN[C@@H](CO)C(=O)O; NMeA = CN[C@@H](C)C(=O)O; dNMeA = CN[C@H](C)C(=O)O

How the values were obtained:
[1] = tested on: human A549 lung cancer cells; experiment: MTS antiproliferative/cell viability assay in A549 cells; type: cell-based; details: for CC50: human A549 lung cancer cells, MTS, 72 h, n = 3, read-out: CC50 (concentration for a 50% decrease in viability)
Protocol: Next, we synthesized CbA derivatives 3a,b by Fmoc-based SPPS using Fmoc/Alloc protected lysine derivatives 4a,b, according to the synthetic procedure for CbA mimetics in our previous study (Scheme S2).[21] The bioactivity profile of the resulting peptides 3a,b was investigated by using a standard MTS antiproliferative/cell viability assay to assess the cytotoxic potential of CbA analogues against human A549 lung cancer cells (Table 1).
10% (v/v) fetal bovine serum at 37 °C in a 5% CO2-incubator. Viability assays using A549 cells were performed in 96-well plates (BD Falcon). A549 cells were seeded at 1000 cells/well in 90 μL of culture media, respectively, and were cultured for 24 h. Chemical compounds in DMSO were diluted 50-fold with the culture medium in advance. 30 μL of the chemical diluents were added. The final volume of DMSO in the medium was equal to 0.5% (v/v). The cells under chemical treatment were incubated for a further 72 h. The wells in the plates were washed twice with the cultured medium without phenol- […]
After 1-hour incubation with 100 μL of the medium, the cell culture in each well was supplemented with 20 μL of the MTS reagent (Promega), followed by incubation for additional 40 min. Absorbance at 490 nm of each well was measured using a Wallac 1420 ARVO SX multilabel counter (Perkin Elmer).
Three experiments were performed per condition and the averages of inhibition rates in each condition were evaluated to determine IC50 values using the GraphPad Prism software. […]

[2] = biological target: GLuc secretion (model Sec61 substrate) from U87-MG-GLuc cells (Homo sapiens, UniProt P61619); experiment: Gaussia luciferase (GLuc) secretory assay; type: cell-based; details: 18-h incubation, n = 3, read-out: IC50 (50% inhibition of GLuc expression)
Protocol: To investigate the mechanistic basis for cytotoxicity, all CbA derivatives were evaluated for their ability to inhibit expression of a model Sec61 substrate using U87-MG cells engineered to express a naturally secreted reporter protein, Gaussia luciferase (GLuc) (Tables 1 and 2). For these studies, U87-MG-GLuc cells were exposed to increasing concentrations of each peptide, or vehicle, for 18 h, and the cell culture medium was assayed for the presence of GLuc. […]
Gaussia Luciferase (GLuc) Secretory Assay
The generation of U87-MG cells expressing the secreted reporter Gaussia luciferase (GLuc) has been described previously.S5,S6 U87-MG-GLuc cells were cultured in Minimum Essential Medium (MEM) with Earl’s salts and L-glutamine (Corning Life Sciences), supplemented with 10% fetal bovine serum […]
(FBS; Hyclone, Logan, UT) and 100 U/mL penicillin and […] streptomycin (1% penicillin/streptomycin). All cells were grown under standard conditions and maintained at 37 °C in an atmosphere of 5% CO2. For analysis of biological activity, cells were seeded at 3,000 cells/well into 96-well plates and allowed to attach overnight. On the day of the experiment, all cells were treated at the same time with the test compound or vehicle (0.1% DMSO) and plates returned to the cell culture

[3] = tested on: U87-MG glioblastoma cells; experiment: CellTiter-Glo viability assay, U87-MG cells; type: cell-based, human; details: 50% viability after 72-hr incubation, n = 3
Protocol: (§1) Viability Assays Using U87 MG Cells, HCT116 Cells and normal human dermal fibroblasts.
Human U87-MG glioblastoma, HCT116 colon cancer cells and normal human dermal fibroblasts were from American Type Culture Collection (ATCC, Manasses, VA). U87-MG cells were cultured in Minimum Essential Medium (MEM) with Earl’s salts and L-glutamine (Corning Life Sciences), supplemented with 10% fetal bovine serum (FBS; Hyclone, Logan, UT) and 100 U/mL penicillin and […] streptomycin (1% penicillin/streptomycin). HCT116 cells were cultured in McCoy’s 5A medium supplemented with 10% FBS and 1% penicillin/streptomycin. […]
(§2) (#PCS-201-041) from ATCC. All cells were grown under standard conditions and maintained at 37 °C in an atmosphere of 5% CO2. For analysis of biological activity, cells were seeded at 3,000 cells/well into 96-well plates and allowed to attach overnight. On the day of the experiment, all cells were treated at the same time with the test compound or vehicle (0.1% DMSO) and plates returned to the cell culture incubator for 72 h. The viability of cells was measured at 72 h using a CellTiter-Glo® Luminescent Cell Viability Assay (Promega Corp) and luminescent signals measured using a multi-mode microplate reader (Biotek Synergy HT). Concentration-response relationships were analyzed using GraphPad Prism Software version 9.5.1 (GraphPad Software, Inc., San Diego, CA), and CC50 values derived using nonlinear regression analysis fit to a logistic equation. […]

[4] = tested on: HCT116 colon cancer cells; experiment: CellTiter-Glo viability assay, HCT116 cells; type: cell-based, human; details: 50% viability after 72-hr incubation, n = 3
Protocol: as §1
(§3) Human U87-MG glioblastoma, HCT116 colon cancer cells and normal human dermal fibroblasts were from American Type Culture Collection (ATCC, Manasses, VA). […]
[…] streptomycin (1% penicillin/streptomycin). HCT116 cells were cultured in McCoy’s 5A medium supplemented with 10% FBS and 1% penicillin/streptomycin. […]
as §2

[5] = CellTiter-Glo viability assay, normal human dermal fibroblasts; type: cell-based; details: normal human dermal fibroblasts (HDFs), 50% viability after 72-hr incubation, n = 3, read-out: HDF CC50
Protocol: as §1, §3
as §2, with “Human dermal fibroblasts were cultured in Fibroblast Basal Medium (#PCS-201-030) supplemented with Fibroblast Growth Kit (#PCS-201-041)” for “(#PCS-201-041)”

[6] = tested on: normal human dermal fibroblasts (HDFs); experiment: as above; type: cell-based; details: 50% viability after 72-hr incubation, n = 3, read-out: HDF CC50
Protocol: as §1, §3
as §2, with “Human dermal fibroblasts were cultured in Fibroblast Basal Medium (#PCS-201-030) supplemented with Fibroblast Growth Kit (#PCS-201-041)” for “(#PCS-201-041)”

[7] = tested on: endogenous VEGF-A secreted from human SF-268 glioblastoma cells; experiment: Detection of secreted VEGF-A by ELISA; type: cell-based; details: 24 h, Figure S5

Chain of GLuc secretion (model Sec61 substrate) from U87-MG-GLuc cells (P61619 whole entry): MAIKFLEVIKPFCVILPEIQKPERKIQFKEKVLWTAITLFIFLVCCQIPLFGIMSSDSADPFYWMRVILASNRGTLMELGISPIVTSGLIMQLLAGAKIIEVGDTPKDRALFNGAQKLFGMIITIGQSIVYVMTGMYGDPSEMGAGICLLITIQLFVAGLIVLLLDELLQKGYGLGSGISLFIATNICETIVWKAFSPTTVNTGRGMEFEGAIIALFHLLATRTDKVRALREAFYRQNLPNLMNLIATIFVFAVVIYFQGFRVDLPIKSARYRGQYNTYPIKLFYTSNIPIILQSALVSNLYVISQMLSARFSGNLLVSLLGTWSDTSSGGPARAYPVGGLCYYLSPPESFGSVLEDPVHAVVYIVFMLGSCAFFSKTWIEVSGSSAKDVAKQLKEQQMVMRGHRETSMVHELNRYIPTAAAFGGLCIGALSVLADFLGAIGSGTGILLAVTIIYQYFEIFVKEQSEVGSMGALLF

For `CC[C@H](C)[C@H]1C(=O)N[C@@H](C)C(=O)N(C)[C@@H](CC(C)C)C(=O)N[C@@H](Cc2ccc(OC)cc2)C(=O)N(C)[C@H](C)C(=O)O[C@H](C)[C@H](N(C)C(=O)[C@H](CC(C)C)N(C)C(=O)[C@H](COC)N(C)C(=O)[C@H](OC(=O)[C@H](C(C)C)N(C)C)C(C)C)C(=O)N(C)[C@@H](COC)C(=O)N1C` [Coibamide A (1a), coibamide A] (NMe2Val-[dHiv][NMeS](Me)[NMeL][NMeT][NMeS](Me)[NMeI]A[NMeL]Y(Me)[dNMeA]; ester 4-C), the CC50 [1] was 1.5 ± 0.4 nM, the IC50 [2] was 1.1 ± 0.3 nM and the CC50 [3] was 50 ± 6 nM. It also gave a CC50 [4] of 2.7 ± 0.5 nM and a CC50 at 72 h [5] of 6.7 ± 2.1 nM.

In the case of `CC[C@H](C)[C@H]1C(=O)N[C@@H](C)C(=O)N(C)[C@@H](CC(C)C)C(=O)N[C@@H](Cc2ccc(-c3ccccc3)cc2)C(=O)N(C)[C@H](C)C(=O)N[C@H](C)[C@H](N(C)C(=O)[C@H](CC(C)C)N(C)C(=O)[C@H](COC)N(C)C(=O)[C@H](OC(=O)[C@H](C(C)C)N(C)C)C(C)C)C(=O)N(C)[C@@H](COC)C(=O)N1C` [Peptide 16c], the “fold more potent (cytotoxicity) than 1a” value ([1]; A549 cells, CC50 compared with 1a) is reported as “approximately 5 fold”, the CC50 [1] is reported as 0.27 ± 0.1 nM and the IC50 [2] is reported as 0.08 ± 0.03 nM. It also gave a CC50 [3] of 0.6 ± 0.2 nM, a CC50 [4] of 0.8 ± 0.23 nM and a CC50 [6] of 0.38 ± 0.08 nM.

With `CC[C@H](C)[C@H]1C(=O)N[C@@H](C)C(=O)N(C)[C@@H](CC(C)C)C(=O)N[C@@H](Cc2ccc(OC)cc2)C(=O)N(C)[C@H](C)C(=O)N[C@H](C)[C@H](N(C)C(=O)[C@H](CC(C)C)N(C)C(=O)[C@H](C)N(C)C(=O)[C@H](OC(=O)[C@H](C(C)C)N(C)C)C(C)C)C(=O)N(C)[C@@H](C)C(=O)N1C` [Peptide 16a] the CC50 [1] was 3.6 ± 1.4 nM, the IC50 [2] was 0.71 ± 0.09 nM and the CC50 [3] was 3.9 ± 0.5 nM. It also gave a CC50 [4] of 4.5 ± 0.5 nM and a CC50 [6] of 4.6 ± 1.4 nM.

With `CC[C@H](C)[C@H]1C(=O)N[C@@H](C)C(=O)N(C)[C@@H](CC(C)C)C(=O)N[C@@H](Cc2ccc(OC)cc2)C(=O)N(C)[C@H](C)/C=C/[C@H](C)[C@H](N(C)C(=O)[C@H](CC(C)C)N(C)C(=O)[C@H](C)N(C)C(=O)[C@H](OC(=O)[C@H](C(C)C)N(C)C)C(C)C)C(=O)N(C)[C@@H](C)C(=O)N1C` [Peptide 3b] the “fold more potent (cytotoxicity) than 3a” value ([1]; A549 cells, CC50 compared with 3a) was 10 fold, the CC50 [1] was 2.6 ± 0.4 nM and the IC50 [2] was 13 ± 2 nM. The CC50 [3] was 6.2 ± 0.1 nM, the CC50 [4] was 11 ± 1 nM and the CC50 [6] was 8.3 ± 2.1 nM.

`CC[C@H](C)[C@H]1C(=O)N[C@@H](C)C(=O)N(C)[C@@H](CC(C)C)C(=O)N[C@@H](Cc2ccc(OC)cc2)C(=O)N(C)[C@H](C)C(=O)NC[C@H](N(C)C(=O)[C@H](CC(C)C)N(C)C(=O)[C@H](C)N(C)C(=O)[C@H](OC(=O)[C@H](C(C)C)N(C)C)C(C)C)C(=O)N(C)[C@@H](C)C(=O)N1C` [Peptide 17a] (NMe2Val-[dHiv][NMeA][NMeL][NMeDap][NMeA][NMeI]A[NMeL]Y(Me)[dNMeA]; lactam 4-C) showed an IC50 [2] of 30 ± 3.9 nM, a CC50 [3] of 48 ± 3 nM and a CC50 [4] of 60 ± 4 nM. For the same molecule, the CC50 [6] was 123 ± 25 nM.

`CC[C@H](C)[C@H]1C(=O)N[C@@H](C)C(=O)N(C)[C@@H](CC(C)C)C(=O)N[C@@H](Cc2ccc(OC)cc2)C(=O)N(C)[C@H](C)CC[C@H](C)[C@H](N(C)C(=O)[C@H](CC(C)C)N(C)C(=O)[C@H](C)N(C)C(=O)[C@H](OC(=O)[C@H](C(C)C)N(C)C)C(C)C)C(=O)N(C)[C@@H](C)C(=O)N1C` [Peptide 3a] gave a CC50 [1] of 41 ± 4 nM, an IC50 [2] of 18 ± 1 nM and a CC50 [3] of 56 ± 2 nM. For the same molecule, the CC50 [4] was 121 ± 23 nM, the CC50 [6] was 213 ± 29 nM and the “expression of endogenous secreted VEGF-A (in words)” value [7] was “statistically significant and concentration-dependent decreases”.

In the case of `CC[C@H](C)[C@H]1C(=O)N[C@@H](C)C(=O)N(C)[C@@H](CC(C)C)C(=O)N[C@@H](Cc2ccc(OC)cc2)C(=O)N(C)[C@H](C)C(=O)O[C@H](C)[C@H](N(C)C(=O)[C@H](CC(C)C)N(C)C(=O)[C@H](C)N(C)C(=O)[C@H](OC(=O)[C@H](C(C)C)N(C)C)C(C)C)C(=O)N(C)[C@@H](C)C(=O)N1C` [Peptide 1b, reference compound] (NMe2Val-[dHiv][NMeA][NMeL][NMeT][NMeA][NMeI]A[NMeL]Y(Me)[dNMeA]; ester 4-C), the CC50 [1] is reported as 3.1 ± 0.8 nM, the IC50 [2] is reported as 2 ± 0.3 nM and the CC50 [3] is reported as 2.6 ± 0.1 nM. It also gave a CC50 [4] of 3.9 ± 0.5 nM and a CC50 [6] of 4.6 ± 1.5 nM.

Work on `CC[C@H](C)[C@H]1C(=O)N[C@@H](C)C(=O)N(C)[C@@H](CC(C)C)C(=O)N[C@@H](Cc2ccc(OC)cc2)C(=O)N(C)[C@H](C)C(=O)N(C)C[C@H](N(C)C(=O)[C@H](CC(C)C)N(C)C(=O)[C@H](C)N(C)C(=O)[C@H](OC(=O)[C@H](C(C)C)N(C)C)C(C)C)C(=O)N(C)[C@@H](C)C(=O)N1C` [Peptide 17b] yielded a CC50 [1] of 6500 nM.

Work on `CC[C@H](C)[C@H]1C(=O)N[C@@H](C)C(=O)N(C)[C@@H](CC(C)C)C(=O)N[C@@H](Cc2ccc(OC)cc2)C(=O)N(C)[C@H](C)C(=O)N[C@H](C)[C@H](N(C)C(=O)[C@H](CC(C)C)N(C)C(=O)[C@H](COC)N(C)C(=O)[C@H](OC(=O)[C@H](C(C)C)N(C)C)C(C)C)C(=O)N(C)[C@@H](COC)C(=O)N1C` [Peptide 16b] yielded a CC50 [1] of 1.3 ± 0.3 nM, an IC50 [2] of 0.04 ± 0.02 nM and a CC50 [3] of 2.2 ± 0.4 nM. For the same molecule, the CC50 [4] was 3.4 ± 0.6 nM and the CC50 [6] was 3.9 ± 1.5 nM.
